Data reported in the CheMixHub viscosity set.

Experiment: xn = mol fraction of the nth substance listed

CCCCC + CCCO
298.15 K, 101.33 kPa
Conditions | viscosity [mPa·s]
x2 = 0.0291 | 0.242
x2 = 0.0777 | 0.256
x2 = 0.1952 | 0.29
x2 = 0.3332 | 0.357
x2 = 0.403 | 0.41
x2 = 0.4771 | 0.484
x2 = 0.6076 | 0.666
x2 = 0.7373 | 0.949
x2 = 0.8545 | 1.333
x2 = 0.9586 | 1.778

CCN(CC)S(C)(=O)=O + CCCO
303.15 K, 101.33 kPa
Conditions | viscosity [mPa·s]
x1 = 0.0661 | 16100
x1 = 0.1423 | 15830
x1 = 0.2148 | 16120
x1 = 0.3057 | 16930
x1 = 0.3821 | 17930
x1 = 0.4421 | 18840
x1 = 0.5219 | 20390
x1 = 0.5944 | 22040
x1 = 0.685 | 24610
x1 = 0.7587 | 27160
x1 = 0.8085 | 29250
x1 = 0.8907 | 33340

CS(C)=O + CCCO
Conditions | viscosity [mPa·s]
298.15 K, 101.3 kPa, x1 = 0.0789 | 1.75
298.15 K, 101.3 kPa, x1 = 0.1613 | 1.651
298.15 K, 101.3 kPa, x1 = 0.339 | 1.535
298.15 K, 101.3 kPa, x1 = 0.434 | 1.541
298.15 K, 101.3 kPa, x1 = 0.5363 | 1.562
298.15 K, 101.3 kPa, x1 = 0.6421 | 1.641
298.15 K, 101.3 kPa, x1 = 0.755 | 1.736
298.15 K, 101.3 kPa, x1 = 0.8737 | 1.845
298.15 K, 101.31 kPa, x1 = 0.1053 | 1.666
298.15 K, 101.31 kPa, x1 = 0.2078 | 1.55
298.15 K, 101.31 kPa, x1 = 0.413 | 1.496
298.15 K, 101.31 kPa, x1 = 0.5099 | 1.527
298.15 K, 101.31 kPa, x1 = 0.7025 | 1.664
298.15 K, 101.31 kPa, x1 = 0.7984 | 1.746
298.15 K, 101.31 kPa, x1 = 0.9011 | 1.871
303.15 K, 101 kPa, x1 = 0.5 | 1.425
303.15 K, 101.3 kPa, x1 = 0.0789 | 1.63
303.15 K, 101.3 kPa, x1 = 0.1613 | 1.54
303.15 K, 101.3 kPa, x1 = 0.2478 | 1.452
303.15 K, 101.3 kPa, x1 = 0.5363 | 1.436
303.15 K, 101.3 kPa, x1 = 0.6421 | 1.495
303.15 K, 101.3 kPa, x1 = 0.755 | 1.57
303.15 K, 101.3 kPa, x1 = 0.8737 | 1.676
308.15 K, 101.31 kPa, x1 = 0.2973 | 1.249
308.15 K, 101.31 kPa, x1 = 0.5099 | 1.29
308.15 K, 101.31 kPa, x1 = 0.5989 | 1.329
308.15 K, 101.31 kPa, x1 = 0.7984 | 1.465
308.15 K, 101.31 kPa, x1 = 0.9011 | 1.56
313.15 K, 101 kPa, x1 = 0.7998 | 1.335
318.15 K, 101.31 kPa, x1 = 0.1053 | 1.116
318.15 K, 101.31 kPa, x1 = 0.2078 | 1.064
318.15 K, 101.31 kPa, x1 = 0.2973 | 1.048
318.15 K, 101.31 kPa, x1 = 0.413 | 1.064
318.15 K, 101.31 kPa, x1 = 0.5099 | 1.093
318.15 K, 101.31 kPa, x1 = 0.5989 | 1.129
318.15 K, 101.31 kPa, x1 = 0.7025 | 1.189
318.15 K, 101.31 kPa, x1 = 0.7984 | 1.239
318.15 K, 101.31 kPa, x1 = 0.9011 | 1.314

O=C(O)C=Cc1ccccc1 + CCCO
viscosity [mPa·s]
Conditions | 308.15 K | 313.15 K | 318.15 K | 323.15 K
101 kPa, x1 = 0.0687 | 2.066 | – | – | –
101 kPa, x1 = 0.0901 | 2.224 | – | – | –
101 kPa, x1 = 0.109 | 2.44 | – | – | –
101.33 kPa, x1 = 0.0687 | 2.066 | 1.836 | 1.629 | 1.452
101.33 kPa, x1 = 0.109 | 2.44 | 2.158 | 1.888 | 1.683

CC(=O)O.NCCO + CCO
viscosity [mPa·s], 101 kPa
Conditions | x1 = 0.0193 | x2 = 0.7231 | x2 = 0.7996 | x2 = 0.8604 | x2 = 0.9136 | x2 = 0.9373 | x2 = 0.9595
293.15 K | 1.608 | 20.45 | 9.894 | 5.502 | 3.168 | 2.55 | 1.998
298.15 K | 1.458 | 16.96 | 8.454 | 4.8 | 2.85 | 2.28 | 1.806
303.15 K | 1.32 | 14.22 | 7.26 | 4.212 | 2.55 | 2.07 | 1.65
